Results from patent US20060063759A1, “Tricyclic steroid hormone nuclear receptor modulators” (priority 2002, published 2006).

How the values were obtained:
[1] = molecular target: T1, human MR (Homo sapiens, UniProt P08235); assay: Mineralocorticoid Receptor Binding Assay ([3H]-aldosterone); conditions: [3H]-aldosterone binding, human MR expressed in Sf9 cells; read-out: MR Ki
T1 construct: The full length human MR gene is cloned from a human kidney or human brain cDNA library; His tag from the pAcHLT vector (own knowledge); made in house; host or cells: Sf9 insect cells (baculovirus, pAcHLT transfer vector)
T1 sequence (P08235 1-984): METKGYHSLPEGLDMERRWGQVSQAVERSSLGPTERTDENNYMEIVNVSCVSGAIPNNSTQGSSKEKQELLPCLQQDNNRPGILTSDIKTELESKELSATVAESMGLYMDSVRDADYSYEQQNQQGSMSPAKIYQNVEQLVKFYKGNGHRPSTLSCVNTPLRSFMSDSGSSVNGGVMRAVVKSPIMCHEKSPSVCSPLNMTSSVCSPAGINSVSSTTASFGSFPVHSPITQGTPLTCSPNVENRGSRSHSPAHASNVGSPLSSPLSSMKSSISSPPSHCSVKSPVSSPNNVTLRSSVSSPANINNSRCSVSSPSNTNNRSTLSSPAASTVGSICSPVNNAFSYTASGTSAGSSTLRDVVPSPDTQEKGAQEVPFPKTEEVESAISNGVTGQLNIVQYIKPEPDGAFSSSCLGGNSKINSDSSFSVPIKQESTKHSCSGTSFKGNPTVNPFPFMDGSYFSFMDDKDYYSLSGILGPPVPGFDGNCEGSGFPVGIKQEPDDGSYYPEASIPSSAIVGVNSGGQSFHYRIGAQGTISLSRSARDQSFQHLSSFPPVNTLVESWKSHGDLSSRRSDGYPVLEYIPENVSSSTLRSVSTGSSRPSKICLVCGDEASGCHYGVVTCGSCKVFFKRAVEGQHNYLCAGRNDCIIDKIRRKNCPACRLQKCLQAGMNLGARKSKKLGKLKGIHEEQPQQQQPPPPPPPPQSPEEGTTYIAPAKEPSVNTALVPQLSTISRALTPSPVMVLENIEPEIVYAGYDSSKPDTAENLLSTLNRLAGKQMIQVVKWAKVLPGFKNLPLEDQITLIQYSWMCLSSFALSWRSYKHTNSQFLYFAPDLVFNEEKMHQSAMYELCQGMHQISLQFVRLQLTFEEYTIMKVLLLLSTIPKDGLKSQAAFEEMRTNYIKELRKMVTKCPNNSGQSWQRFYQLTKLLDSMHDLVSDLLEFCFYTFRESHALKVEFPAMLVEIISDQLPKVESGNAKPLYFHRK
Description: (§1) All ligands, radioligands, solvents, and reagents employed in the binding assays are readily available from commercial sources, or can be readily synthesized by the ordinarily skilled artisan.
The full length human MR gene is cloned from a human kidney or human brain cDNA library. […] The PCR reaction is performed in a final volume of 50 μl containing about 1 μl of a 50× stock solution of polymerase; about 1 μl of a 50× stock solution of dNTP; about 5 μl of an appropriate PCR buffer; about 1 μl of each primer; about […] of a H. kidney or H. brain cDNA library; and about 36 μl of water. The reaction is allowed to denature for about 30 seconds at 95 degrees Celsius, anneal for about 30 seconds at 55 degrees Celsius, and extend for about 5 minutes at 72 degrees Celsius, the sequence being repeated for a total of about 35 cycles. […] To extract the cDNA product from the agarose gel, the QIAEX II Gel Extraction protocol (QIAGEN, Inc.) is employed according to the manufacturer's instructions. Following extraction, the MR cDNA is cloned into an appropriate cloning vector (Zero Blunt TOPO PCR Cloning Kit Invitrogen, Inc.) and a pAcHLT-baculovinis transfer vector (B.D./Pharminogen), then expressed in SF9 insect cells, essentially according to manufacturer's instructions. Sf9 cells are grown at a scale where gram quantity cell pellets are obtained for subsequent use in the MR binding assay. Harvested cell pellets are lysed by repeated freeze-thaw cycles (about 4) in a suitable lysis buffer then centrifuged at about 1×10^3 G (with the supernatant being saved for future assays).
MR binding assays are performed in a final total volume of about 250 μl containing about 20-25 μg of protein and 0.5 nM of [^3H]-aldosterone plus varying concentrations of test compound or vehicle. The assay binding buffer consists of 30 mM sodium molybdate, 30 mM of TRIS-HCl, 5 mM sodium phosphate, 5 mM sodium pyrophosphate, and about 10% glycerol, pH=7.5.
Incubations are carried out at 4 degrees Celsius with shaking for about 16 hours. 200 μl aliquots of each incubation are filtered onto Millipore HA 0.45 micron 96-well filter plates, pre-moistened with cold 30 mM TRIS-HCl. The filter plates are suctioned dry with vacuum and immediately washed 3× with cold 30 mM TRIS-HCl. The plates are then punched out and the amount of receptor-ligand complex is determined by liquid scintillation counting using 4 ml of Ready Protein Plus™ liquid scintillation cocktail.
IC50 values (defined as the concentration of test compound required to decrease [^3H]-aldosterone binding by 50%/o) are then determined.

[2] = molecular target: T2, glucocorticoid receptor (Homo sapiens, UniProt P04150); assay: Glucocorticoid Receptor Binding Assay ([3H]-dexamethasone, A549 cell extract); conditions: [3H]-dexamethasone binding, read-out: GR Ki
T2 construct: containing 50-200 ug of A549 cell extract and 1.86 nM [^3H]-dexamethasone; host or cells: A549 human lung epithelial cells (sonicated cell extract)
T2 sequence (P04150 1-777): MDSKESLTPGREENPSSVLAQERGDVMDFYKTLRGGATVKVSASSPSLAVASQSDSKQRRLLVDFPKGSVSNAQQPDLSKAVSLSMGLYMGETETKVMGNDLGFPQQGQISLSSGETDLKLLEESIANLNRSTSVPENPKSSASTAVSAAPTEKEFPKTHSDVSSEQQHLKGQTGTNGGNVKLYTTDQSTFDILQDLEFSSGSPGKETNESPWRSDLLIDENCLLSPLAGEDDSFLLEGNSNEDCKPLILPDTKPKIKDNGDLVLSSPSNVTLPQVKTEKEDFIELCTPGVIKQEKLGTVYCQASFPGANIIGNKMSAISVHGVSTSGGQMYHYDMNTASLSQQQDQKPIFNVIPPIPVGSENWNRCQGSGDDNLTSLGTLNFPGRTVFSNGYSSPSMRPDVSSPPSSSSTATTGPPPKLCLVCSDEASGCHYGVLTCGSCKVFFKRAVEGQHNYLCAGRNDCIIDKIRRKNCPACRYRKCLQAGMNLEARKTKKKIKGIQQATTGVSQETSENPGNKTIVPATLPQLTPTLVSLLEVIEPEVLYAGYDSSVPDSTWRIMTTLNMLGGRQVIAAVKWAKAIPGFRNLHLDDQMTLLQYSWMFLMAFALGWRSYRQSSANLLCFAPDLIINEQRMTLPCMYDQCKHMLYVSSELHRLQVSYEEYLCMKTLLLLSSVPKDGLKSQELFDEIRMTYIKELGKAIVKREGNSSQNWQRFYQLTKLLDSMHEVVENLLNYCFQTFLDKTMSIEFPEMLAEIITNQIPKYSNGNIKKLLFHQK
Description: as §1
A549 human lung epithelial cells (ATCC) are grown at a scale where gram quantity cell pellets are obtained. Harvested cell pellets are washed twice in cold phosphate buffered saline, centrifuged, and resuspended in cold assay binding buffer. The assay binding buffer consists of 10% glycerol, 50 mM Tris-HCl (pH7.2), 75 mM sodium chloride, 1.5 mM magnesium chloride, 1.5 mM EDTA, and 10 mM sodium molybdate. Cell suspensions were lysed via sonication, centrifuged, and the “extract” supernatant is snap frozen and stored at −80 C until needed.
GR binding assays are performed in a final volume of 140 ul containing 50-200 ug of A549 cell extract and 1.86 nM [^3H]-dexamethasone (Amersham) plus varying concentrations of test compound or vehicle. Briefly, assays are prepared at RT in 96-well Fisher 3356 plates, each well containing 100 ul of A549 cell extract, 20 ul of [^3H]-dexamethasone, and 20 ul of test compound/vehicle. Incubations are carried out at 4 degrees Celsius for 16 hours. After incubation, 70 ul of 3× dextran-coated charcoal solution is added to each reaction, mixed, and incubated for 8 minutes at RT. 3×-dextran-coated charcoal solution consists of 250 ml assay binding buffer, 3.75 g Norit A charcoal (Sigma), and 1.25 g dextran T-70 (Amersham). Charcoal/unbound radioligand complexes are removed by centrifugation of the plate and 140 ul of supernatant from each well is transferred to another 96 well Optiplate (Packard Instruments). 200 ul of Microscint-20 scinillant (Packard Instruments) is added to each well and amount of receptor bound radioligand is determined using Packard Instruments TopCount instrument.

Structure (SMILES): Fc1ccc2c(c1)CCc1ncccc1/C2=C\c1ccccc1 [Example 527]
- Ki [1]: < 500 nM
- Ki [2]: < 10000 nM

Structure (SMILES): Oc1cccc(C=C2c3ccccc3CCc3c2ccc(Cl)c3Cl)c1 [198(b), 3-(1,2-Dichloro-10,11-dihydro-dibenzo[a,d]cyclohepten-5-ylidenemethyl)-phenol]
- Ki [1]: < 500 nM
- Ki [2]: < 1000 nM

Structure (SMILES): CS(=O)(=O)Nc1cccc(/C=C2\c3ccc(Cl)cc3COc3ccccc32)c1 [Example 725]
- Ki [1]: < 500 nM
- Ki [2]: < 500 nM

Structure (SMILES): CS(=O)(=O)Nc1cccc(/C=C2\c3ccccc3COc3ccc(Cl)cc32)c1 [Example 681]
- Ki [1]: < 500 nM
- Ki [2]: < 500 nM

Structure (SMILES): CCCCS(=O)(=O)Nc1cccc(C=C2c3ccccc3CCc3ccccc32)c1 [Example 105, Butane-1-sulfonic acid [3-(10,11-dihydro-dibenzo[a,d]cyclohepten-5-ylidenemethyl)-phenyl]-amide]
- Ki [1]: < 500 nM
- Ki [2]: < 500 nM

Structure (SMILES): COc1ccc(C=C2c3ccccc3CSc3ccccc32)cn1 [Example 688]
- Ki [1]: < 500 nM
- Ki [2]: < 500 nM

Structure (SMILES): CS(=O)(=O)Nc1cccc(CC2c3ccccc3CCc3c(F)cccc32)c1 (stereo not shown) [Example 187, N-[3-(1-Fluoro-10,11-dihydro-5H-dibenzo[a,d]cyclohepten-5-ylmethyl)-phenyl]-methanesulfonamide]
- Ki [1]: < 500 nM
- Ki [2]: < 500 nM

Structure (SMILES): Cc1nc(S(=O)(=O)Nc2cccc(C=C3c4ccccc4CCc4ccccc43)c2)cn1C [Example 96, 1,2-Dimethyl-1H-imidazole-4sulfonic acid [3-(10,11-dihydro-dibenzo[a,d]cyclohepten-5-ylidenemethyl)-phenyl]-amide]
- Ki [1]: < 500 nM
- Ki [2]: < 10000 nM

Structure (SMILES): CS(=O)(=O)Nc1cccc(/C=C2\c3ccc(F)cc3COc3ccccc32)c1 [Example 723]
- Ki [1]: < 500 nM
- Ki [2]: < 500 nM

Structure (SMILES): CS(=O)(=O)Nc1cccc(/C=C2/c3ccc(F)cc3CCc3nc(Cl)sc32)c1 [Example 551]
- Ki [1]: < 500 nM
- Ki [2]: < 500 nM

Structure (SMILES): Fc1ccc2c(c1)CCc1ncccc1/C2=C\c1ccccc1C(F)F [Example 540]
- Ki [1]: < 500 nM
- Ki [2]: < 500 nM

Structure (SMILES): O=c1[nH]c2ccc(/C=C3/c4ccccc4CCc4cc(C(F)(F)F)ccc43)cc2[nH]1 [Example 473]
- Ki [1]: < 500 nM
- Ki [2]: < 10000 nM

Structure (SMILES): O=c1[nH]c2cc(/C=C3/c4ccccc4COc4cc(F)ccc43)ccc2s1 [Example 636]
- Ki [1]: < 500 nM
- Ki [2]: < 500 nM

Structure (SMILES): COc1ccc2c(c1)CCc1cc(C)ccc1/C2=C\c1cccc(NS(C)(=O)=O)c1 [Example 423]
- Ki [1]: < 500 nM
- Ki [2]: < 500 nM

Structure (SMILES): O=c1[nH]c2cc(/C=C3/c4ccccc4COc4cc(F)ccc43)ccc2n1C1CC1 [Example 709]
- Ki [1]: < 500 nM
- Ki [2]: < 500 nM

Structure (SMILES): Oc1cccc(/C=C2/c3ccccc3CCc3cc(C(F)F)ccc32)c1 [Example 334]
- Ki [1]: < 500 nM
- Ki [2]: < 500 nM

Structure (SMILES): COc1cc2c(cc1Br)/C(=C/c1cccc(NS(C)(=O)=O)c1)c1ccccc1CO2 [Example 668]
- Ki [1]: < 500 nM
- Ki [2]: < 1000 nM

Structure (SMILES): CSc1ccc2c(c1)CCc1ccccc1/C2=C\c1cccc(NS(C)(=O)=O)c1 [Example 388]
- Ki [1]: < 500 nM
- Ki [2]: < 500 nM

Structure (SMILES): Oc1cccc(C=C2c3ccccc3CCc3c(F)cccc32)c1 [185(a), 3-(1-Fluoro-10,11-dihydro-dibenzo[a,d]cyclohepten-5-ylidenemethyl)-phenol]
- Ki [1]: < 500 nM
- Ki [2]: < 500 nM

Structure (SMILES): O=Cc1cccc2c1CCc1ccccc1/C2=C/c1cccc(O)c1 [Example 379]
- Ki [1]: < 500 nM
- Ki [2]: < 10000 nM

Structure (SMILES): CN(c1cccc(/C=C2\c3ccccc3COc3cc(Cl)ccc32)c1)S(C)(=O)=O [Example 667]
- Ki [1]: < 1000 nM
- Ki [2]: < 10000 nM

Structure (SMILES): Cc1ccc2c(c1)CSc1ccccc1/C2=C/c1cccc(NS(C)(=O)=O)c1 [Example 744]
- Ki [1]: < 500 nM
- Ki [2]: < 500 nM

Structure (SMILES): CS(=O)(=O)Nc1cccc(C=C2c3ccccc3CCc3cc(OCCc4ccccc4)ccc32)c1 [Example 330]
- Ki [1]: < 500 nM
- Ki [2]: < 500 nM

Structure (SMILES): FC(F)(F)c1ccccc1CC1c2ccccc2CCc2ccccc21 [Example 283]
- Ki [1]: < 500 nM
- Ki [2]: < 10000 nM

Structure (SMILES): Oc1cccc(C=C2c3ccccc3CCc3c2cccc3C(Br)Br)c1 [Example 373]
- Ki [1]: < 500 nM
- Ki [2]: < 10000 nM

Structure (SMILES): Nc1cccc(C=C2c3ccccc3CCc3cc(Cl)ccc32)c1 (mixture of isomers) [Example 289, 3-(2-Chloro-10,11-dihydro-dibenzo[a,d]cyclohepten-5-ylidenemethyl)-phenylamine]
- Ki [1]: < 500 nM
- Ki [2]: < 1000 nM
